Source: patent publication US20050058707A1, “Uniform delivery of topiramate over prolonged period of time with enhanced dispersion formulation” (priority 2003, published 2005)
In brackets after ≈: the same amount, converted by molar mass. Where two headings read alike, the source gives them in different places.

Legend:
[1] = Physicians' Desk Reference; cited from earlier work
[2] = Aqueous solubility of topiramate; type: physicochemical; conditions: 37 °C, thermodynamic from solid
Protocol: Aqueous solubility is determined by adding the therapeutic agent to stirred or agitated water maintained in a constant temperature bath at a temperature of 37 degrees centigrade until no more agent dissolves. The resulting solution saturated with active agent is then filtered, typically under pressure through a 0.8-micron Millipore filter, and the concentration in solution is measured by any appropriate analytical method including gravimetric, ultraviolet spectrophometry, chromatography, and the like.

solubility ([2]; de-ionized water, read-out: Solubility of neat topiramate measured in de-ionized water): 12 mg/mL (≈ 35.4 mM)
solubility ([2]; water, read-out: solubility): 9.8 to 13 mg/mL (≈ 28.9 to 38.3 mM)
SMILES: CC1(C)O[C@@H]2[C@@H](CO[C@@]3(COS(N)(=O)=O)OC(C)(C)O[C@@H]23)O1 [Topiramate, topiramate]
solubility in water [1]: about 9.8 mg/ml
